How the values were obtained:
LDL cholesterol [1] = experiment: Projected benefit on LDL cholesterol level (Table 5); format: in vivo, patients; set-up: key: “NC” indicating no change; details: expected benefit, class symbol
Source text: (§1) The particular CVD-specific nutraceuticals and regimens herein disclosed were also designed to achieve a measurable benefit on lipid levels equivalent to those provided by many popular pharmaceutical drug therapies. The expected range of benefits (“NC” indicating no change) is projected as indicated below in Table 5. Given that all of the nutritional supplement ingredients used in the CVD-specific nutraceutical herein disclosed operate according to independent mechanisms, the cumulative effective on LDL cholesterol, HDL cholesterol, triglycerides and homocysteine levels would be additive and would not counteract each other or interfere with common CVD prescription pharmaceutical treatments.

HDL cholesterol [2] = experiment: Projected benefit on HDL cholesterol level (Table 5); format: in vivo, patients; details: expected range of benefits, CVD-specific nutraceutical regimen
Source text: as §1

triglycerides [3] = experiment: Projected benefit on triglyceride level (Table 5); format: in vivo, patients; details: expected range of benefits, CVD-specific nutraceutical regimen
Source text: as §1

homocysteine = experiment: Projected benefit on homocysteine level (Table 5); format: in vivo, patients; set-up: key: “NC” indicating no change; details: expected benefit, class symbol
Source text: as §1

LDL cholesterol [4] = details: higher doses (1000-3000 mg/day); cited from earlier work
triglycerides [5] = details: low doses (500-1000 mg/day); cited from earlier work
HDL cholesterol [6] = details: low doses (500-1000 mg/day); cited from earlier work

## O=C(O)c1cccnc1 [Niacin]
LDL cholesterol [1]
  LDL: NC
HDL cholesterol [2]
  HDL increase: 5-10%
Triglycerides [3]
  TRIGLYCERIDES decrease: 0-10%
homocysteine
  HOMOCYSTEINE: NC
LDL cholesterol [4]
  effect on LDL cholesterol: decrease LDL cholesterol modestly
Triglycerides [5]
  effect on triglycerides: lower triglycerides
HDL cholesterol [6]
  effect on HDL cholesterol: raise HDL cholesterol
